Data reported in ChEMBL document CHEMBL1201862, “PubChem BioAssay data set” (2004).
The source made the active and inactive calls.

Columns and labels:
[1] = target: T1, Short transient receptor potential channel 4 (Mus musculus, UniProt Q9QUQ5); experiment: mouse TRPC4 channel activators, dose response, cell-based, HEK293 TRPC4/mu-opioid, Fluo-4 calcium (AID 434937); type: functional
T1 sequence (Q9QUQ5 whole entry): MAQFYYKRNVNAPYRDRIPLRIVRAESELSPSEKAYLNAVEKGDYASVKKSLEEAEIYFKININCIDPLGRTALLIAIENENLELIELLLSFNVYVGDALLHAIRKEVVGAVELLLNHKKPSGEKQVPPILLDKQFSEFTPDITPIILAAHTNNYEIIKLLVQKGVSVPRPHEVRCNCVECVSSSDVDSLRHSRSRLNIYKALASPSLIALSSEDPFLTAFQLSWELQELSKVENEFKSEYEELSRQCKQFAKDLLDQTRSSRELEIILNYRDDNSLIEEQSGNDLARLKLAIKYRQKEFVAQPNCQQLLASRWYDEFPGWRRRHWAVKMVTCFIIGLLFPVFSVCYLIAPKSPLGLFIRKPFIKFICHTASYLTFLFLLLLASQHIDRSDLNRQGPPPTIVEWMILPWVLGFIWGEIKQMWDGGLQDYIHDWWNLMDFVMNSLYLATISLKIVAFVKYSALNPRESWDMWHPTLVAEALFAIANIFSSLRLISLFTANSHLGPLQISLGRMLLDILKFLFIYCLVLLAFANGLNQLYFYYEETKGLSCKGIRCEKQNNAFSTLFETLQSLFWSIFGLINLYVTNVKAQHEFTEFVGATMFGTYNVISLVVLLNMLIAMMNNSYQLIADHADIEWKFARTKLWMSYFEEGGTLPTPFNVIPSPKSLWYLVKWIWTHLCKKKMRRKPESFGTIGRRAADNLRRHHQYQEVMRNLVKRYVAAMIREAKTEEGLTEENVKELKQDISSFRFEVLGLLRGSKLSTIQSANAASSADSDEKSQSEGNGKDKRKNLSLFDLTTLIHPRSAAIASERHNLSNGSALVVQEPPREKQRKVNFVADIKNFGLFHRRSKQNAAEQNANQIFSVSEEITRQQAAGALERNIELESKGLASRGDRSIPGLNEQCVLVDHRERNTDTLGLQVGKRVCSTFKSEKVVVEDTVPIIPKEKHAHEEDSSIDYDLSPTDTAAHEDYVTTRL

[2] = cytotoxicity in HEK-293T cells, dose response, cytotoxicity control for TCR NF-kB inhibitor project, luminescence, T-cell screen hits (AID 489026); type: functional, cell-based;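 also: cells exposed to compound about 14 hours before the viability readout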
[3] = C. albicans growth with fluconazole, confirmation, fluorescence, retest (AID 2467); type: functional, cell-based
[4] = NIH-3T3 fibroblast cytotoxicity, dose response, cytotoxicity control, cell-based, fluorescence, Alamar Blue, secondary assay (AID 2327); type: functional;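 also: NIH-3T3 mouse fibroblasts cultured with fluconazole at 8 µg/mL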
[5] = target: T2, RNA-binding protein pos-1 (Caenorhabditis elegans, UniProt G5EF15); experiment: inhibitors of POS-1/mex-3 RNA binding, dose response, biochemical, fluorescence polarization (AID 1964);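 also: purified POS-1 fused to maltose binding protein made in E. coli; potency of compounds blocking POS-1 binding to fluorescent RNA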
T2 sequence (G5EF15 whole entry): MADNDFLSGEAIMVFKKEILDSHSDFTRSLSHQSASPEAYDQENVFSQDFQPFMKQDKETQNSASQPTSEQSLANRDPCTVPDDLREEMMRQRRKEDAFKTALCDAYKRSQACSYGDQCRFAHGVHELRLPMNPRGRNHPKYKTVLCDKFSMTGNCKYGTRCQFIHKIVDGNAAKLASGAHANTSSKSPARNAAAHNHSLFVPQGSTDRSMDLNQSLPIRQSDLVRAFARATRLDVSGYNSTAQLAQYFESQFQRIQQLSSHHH

[6] = inhibitors of intracellular T. cruzi replication, confirmation, NIH3T3 host cells, beta-gal luminescence (AID 2044); type: functional, cell-based;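 also: intracellular parasites grown in NIH/3T3 mouse fibroblasts as host cells; luminescent beta-galactosidase reporter signal from transgenic T. cruzi replicating inside host cells; inhibitors lower the luminescence signal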
[7] = cytotoxicity toward NIH3T3 fibroblasts, dose response, counter-screen, cell-based, ATP luminescence, mouse fibroblasts (AID 2010); type: functional;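 also: cells exposed to compound for about 90 hours before reading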
[8] = target: T3, Zinc finger protein mex-5 (Caenorhabditis elegans, UniProt Q9XUB2); experiment: MEX-5/TCR-2 RNA interaction inhibitors, dose response, biochemical, C. elegans, fluorescence polarization (AID 1960)
T3 sequence (Q9XUB2 whole entry): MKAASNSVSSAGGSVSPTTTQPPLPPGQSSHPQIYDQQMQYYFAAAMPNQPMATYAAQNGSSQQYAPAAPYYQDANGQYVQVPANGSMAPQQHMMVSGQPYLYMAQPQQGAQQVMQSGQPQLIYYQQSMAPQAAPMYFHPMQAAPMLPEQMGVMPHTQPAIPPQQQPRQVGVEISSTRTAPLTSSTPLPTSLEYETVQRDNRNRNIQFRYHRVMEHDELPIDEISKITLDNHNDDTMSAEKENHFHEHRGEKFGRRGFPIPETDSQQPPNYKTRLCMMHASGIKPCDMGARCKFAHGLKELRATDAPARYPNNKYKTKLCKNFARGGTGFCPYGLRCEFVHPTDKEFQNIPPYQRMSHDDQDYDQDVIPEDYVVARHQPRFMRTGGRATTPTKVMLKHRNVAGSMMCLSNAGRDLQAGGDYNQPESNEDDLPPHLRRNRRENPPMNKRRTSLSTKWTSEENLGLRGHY

[9] = target: T4, Ubiquitin-conjugating enzyme E2 N (Homo sapiens, UniProt P61088); type: functional;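 also: Dose-response confirmation in a TR-FRET assay detecting UBC13-driven polyubiquitin chain formation, inhibition measured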
T4 sequence (P61088 whole entry): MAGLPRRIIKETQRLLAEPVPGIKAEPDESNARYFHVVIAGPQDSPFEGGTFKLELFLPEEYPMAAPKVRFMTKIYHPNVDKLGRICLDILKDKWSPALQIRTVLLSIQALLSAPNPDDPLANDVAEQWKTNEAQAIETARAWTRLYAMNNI

[10] = inhibitors of SNCA 5'UTR-driven reporter translation, confirmation, H4 neuroglioma cells, luminescence (AID 1988); type: functional, cell-based
[11] = inhibitors of firefly luciferase expression or activity, dose response, H4 neuroglioma cells, luminescence (AID 1990); type: functional, cell-based
[12] = Luminescence Cell-Based Dose Response HTS to Identify Inhibitors of 5'UTR Stem-Loop Driven Prion Protein mRNA Translation in H4 Neuroglioblastoma Cells. [Related pubchem assays: 1827 (Project Summary), 1813 (Primary HTS)]; type: functional
[13] = Luminescence Cell-Based Dose Retest to Confirm Inhibitors of Cancer Stem Cells. [Related pubchem assays (depositor defined):AID2717, AID2721]; type: functional; settings: Homo sapiens
[14] = target: T5, Corticotropin-releasing factor receptor 2/Corticotropin-releasing factor-binding protein (Homo sapiens, UniProt P24387+Q13324); experiment: activators of CRF receptor 2 with binding protein – uHTS hits, confirmation (AID 602473); type: functional; settings: read-out: EC50_Mean
T5 sequence (Q13324 whole entry): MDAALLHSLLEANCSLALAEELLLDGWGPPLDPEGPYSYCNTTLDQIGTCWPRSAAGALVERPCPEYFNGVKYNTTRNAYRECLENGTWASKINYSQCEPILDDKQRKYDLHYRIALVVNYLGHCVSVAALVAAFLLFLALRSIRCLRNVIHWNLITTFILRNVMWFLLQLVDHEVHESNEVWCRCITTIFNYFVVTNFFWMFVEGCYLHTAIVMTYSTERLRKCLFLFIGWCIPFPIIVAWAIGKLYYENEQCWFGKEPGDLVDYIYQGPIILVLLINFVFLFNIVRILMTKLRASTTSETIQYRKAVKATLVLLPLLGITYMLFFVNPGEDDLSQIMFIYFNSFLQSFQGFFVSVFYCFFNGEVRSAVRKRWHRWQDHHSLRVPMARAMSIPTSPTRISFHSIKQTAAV
T5 sequence (P24387 whole entry): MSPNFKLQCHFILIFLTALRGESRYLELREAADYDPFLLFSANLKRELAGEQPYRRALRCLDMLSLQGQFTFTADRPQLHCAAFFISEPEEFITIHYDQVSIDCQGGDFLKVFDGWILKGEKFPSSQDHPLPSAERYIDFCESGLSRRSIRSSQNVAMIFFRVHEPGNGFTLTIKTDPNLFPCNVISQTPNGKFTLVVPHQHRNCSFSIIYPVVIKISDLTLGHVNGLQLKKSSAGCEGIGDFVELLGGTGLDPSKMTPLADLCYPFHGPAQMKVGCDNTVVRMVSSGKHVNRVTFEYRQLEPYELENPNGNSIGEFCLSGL

[15] = target: T6, Microphthalmia-associated transcription factor (Homo sapiens, UniProt O75030); experiment: TRPM1 promoter luciferase signal decrease, dose response, MITF inhibitor project, cell-based, SK-MEL-5, cherry-picked, set 3 (AID 493073); type: functional
T6 sequence (O75030 whole entry): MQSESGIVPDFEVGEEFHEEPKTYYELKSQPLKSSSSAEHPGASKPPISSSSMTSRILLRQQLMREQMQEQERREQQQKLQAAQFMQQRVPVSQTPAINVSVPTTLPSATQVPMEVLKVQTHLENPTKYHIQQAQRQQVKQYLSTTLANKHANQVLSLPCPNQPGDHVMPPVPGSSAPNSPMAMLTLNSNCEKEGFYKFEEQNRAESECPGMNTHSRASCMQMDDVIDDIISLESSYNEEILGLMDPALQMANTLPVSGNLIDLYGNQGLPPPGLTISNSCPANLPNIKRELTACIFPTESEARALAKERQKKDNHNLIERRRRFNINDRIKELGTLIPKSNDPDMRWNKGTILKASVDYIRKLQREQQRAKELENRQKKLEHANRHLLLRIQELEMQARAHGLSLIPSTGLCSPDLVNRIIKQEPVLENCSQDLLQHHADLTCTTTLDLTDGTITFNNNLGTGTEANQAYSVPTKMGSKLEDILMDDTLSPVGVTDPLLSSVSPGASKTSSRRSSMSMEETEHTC

Protein skinhead-1 = target: T7, Protein skinhead-1 (Caenorhabditis elegans, UniProt P34707); type: functional
T7 sequence (P34707 whole entry): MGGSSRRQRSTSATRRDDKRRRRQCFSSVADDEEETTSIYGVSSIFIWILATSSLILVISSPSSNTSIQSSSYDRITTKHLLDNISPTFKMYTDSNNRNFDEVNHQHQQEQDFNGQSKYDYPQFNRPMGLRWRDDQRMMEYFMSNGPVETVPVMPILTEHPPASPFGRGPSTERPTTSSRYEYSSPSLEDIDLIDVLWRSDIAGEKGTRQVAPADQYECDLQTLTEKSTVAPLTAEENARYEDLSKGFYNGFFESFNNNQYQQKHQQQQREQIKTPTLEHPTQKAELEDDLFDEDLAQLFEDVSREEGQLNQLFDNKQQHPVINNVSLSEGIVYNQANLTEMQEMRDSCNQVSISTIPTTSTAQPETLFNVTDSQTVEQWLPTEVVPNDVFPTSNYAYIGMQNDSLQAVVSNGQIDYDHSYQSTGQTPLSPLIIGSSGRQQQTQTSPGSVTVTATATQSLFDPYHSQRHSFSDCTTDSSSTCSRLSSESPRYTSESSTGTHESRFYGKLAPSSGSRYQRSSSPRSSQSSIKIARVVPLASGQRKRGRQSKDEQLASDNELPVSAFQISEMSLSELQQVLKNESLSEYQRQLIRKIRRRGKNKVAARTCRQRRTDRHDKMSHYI

For `CN1CCN(Cc2nc3c(c(=O)[nH]c(=O)n3C)n2Cc2c(F)cccc2Cl)CC1`, the EC50 [1] was 1.68 µM (active).

For `CCOc1ccccc1C1CC(=O)Nc2cc3c(cc21)OCO3` (configuration not stated), the IC50 [2] was > 80 µM (inactive).

For `Cc1ccc(C)c(SCC(=O)Nc2nnc(-c3ccccc3)o2)c1`, the EC50 [3] was 2.1 µM (active) and the EC50 [4] was > 150 µM (inactive).

With `COc1cc(C(CCN2CCCC2)c2c(OC)cc(OC)c3c(-c4ccccc4)cc(=O)oc23)cc(OC)c1OC` (configuration not stated) the EC50 [5] was > 300 µM (not active), the EC50 [6] was 1.7 µM (active) and the EC50 [7] was 49.2 µM (active). The EC50 [8] was > 300 µM (not active) and the IC50 [9] was > 20 µM (inactive).

For `COc1ccc([C@H]2CC(=O)C=C(c3c(OC)cccc3OC)C2)cc1`, the IC50 [2] was > 80 µM (inactive).

In the case of `COc1cccc(OC)c1C1=NCC(=O)Nc2c1oc1ccc(Br)cc21`, the EC50 [10] is reported as 0.267 µM (active), the EC50 [11] is reported as 0.752 µM (active) and the EC50 [12] is reported as 0.566 µM (active). The IC50 [2] was 71.8 µM (inactive).

For `COc1ccc(-c2sc3ccccc3c2C#Cc2cncn2C)cc1`, the AC50 [13] was 2.69 µM (active) and the IC50 [9] was > 20 µM (inactive).

In the case of `Cc1ccc(NS(=O)(=O)c2ccc(CCC(=O)NCCO)cc2)cc1`, the EC50 [3] is reported as > 38 µM (not active) and the EC50 [4] is reported as > 150 µM (inactive).

With `O=C(COc1cc(Cl)c(Cl)cc1Cl)NCCc1ccccn1` the EC50 [1] was 10.6 µM (active).

For `CCCCC(=O)NC(=S)NNC(=O)c1ccc(Cl)cc1Cl`, the EC50 [1] was 5.31 µM (active) and the EC50 [14] was 6.56 µM (active).

With `O=c1c2ccccc2nc(-c2ccc(Cl)cc2Cl)n1O` the EC50 [3] was 2.06 µM (active) and the EC50 [4] was > 160 µM (inactive).

In the case of `NC(=O)C1CCCN(CC(O)COCc2ccc(Cl)cc2)C1` (configuration not stated), the EC50 [1] is reported as 0.211 µM (active).

In the case of `N=c1n(CC(=O)c2ccc([N+](=O)[O-])cc2)c2ccccc2n1Cc1ccccc1Cl`, the AC50 [15] is reported as 4.03 µM (active).

In the case of `Cc1ccc(C2CC(C(F)(F)F)n3nc(C(=O)NCc4c(C)nn(C)c4C)c(Cl)c3N2)cc1` (configuration not stated), the AC50 [15] is reported as 8.89 µM (active) and the IC50 (Protein skinhead-1) is reported as > 100 µM (inactive).

In the case of `Cc1cc(C)c(CN2CCN(Cc3ccc(C)o3)C(CCO)C2)c(-n2cccn2)c1` (configuration not stated), the EC50 [1] is reported as 3.35 µM (active).

With `CN(C)C(CNC(=O)c1ccc2ccccc2n1)c1ccccc1` (configuration not stated) the EC50 [1] was 0.267 µM (active).

For `Cc1ccccc1Cn1c(CN2CCc3ccccc3C2)nc2c1c(=O)n(C)c(=O)n2C`, the EC50 [1] was 5.96 µM (active).

For `O=C(NCc1ccccc1)C1c2ccccc2Oc2ccccc21`, the EC50 [3] was 2.43 µM (active) and the EC50 [4] was > 150 µM (inconclusive).
